Values of other authors as cited in paper PMC12375981 (Protein Science : A Publication of the Protein Society, 2025).
Marks after values point to notes of the source that are not given here.

Key:
WT 3CL^pro = WT 3CL^pro (Severe acute respiratory syndrome coronavirus 2, UniProt P0DTD1); settings: cited from earlier work
SARS‐CoV‐2 3CL^pro = settings: cited from earlier work

For COc1cccc2[nH]c(C(=O)N[C@@H](CC(C)C)C(=O)N[C@@H](C[C@@H]3CCNC3=O)C(=O)COP(=O)(O)O)cc12 [lufotrelvir], the “K D ^app” value (WT 3CL^pro) is listed as 17 ± 2 ^b nM.

In the case of CC(C)(C)[C@H](NC(=O)C(F)(F)F)C(=O)N1C[C@H]2[C@@H]([C@H]1C(=O)N[C@H](C#N)C[C@@H]1CCNC1=O)C2(C)C [nirmatrelvir], the “increase of the strength of dimerization” value (SARS‐CoV‐2 3CL^pro) is given as “about seven”.
